Test results reported in ChEMBL document CHEMBL6074691, “Discovery of 22(S)-23-phenyl-24-norchol-5-en-3β,22-diol (PFM046) as the first-in-class, steroidal, non-sulfated Liver X Receptor antagonist with anticancer activity” (Eur J Med Chem, 2025).
The source made the active and inactive calls. The calls are words filed in the database; no cut-off is given here.

Experiments:
[1] = system: Lewis lung carcinoma cell line; test: Antitumor activity against mouse Lewis lung carcinoma cell line assessed as reduction in cell number at 10 uM incubated for 72 hrs by trypan blue assay; format: functional, cell-based
B16-F1 = test: Antitumor activity against mouse B16-F1 cells implanted in C57BL/6 mouse assessed as reduction in tumor volume at 300 to 400 ug, ip administered 5 days per week and measured every 2 to 3 days by caliper method; format: functional, organism-based; conditions: dose 300-400 µg
[2] = system: Lewis lung carcinoma cell line; test: Antitumor activity against mouse Lewis lung carcinoma cell line implanted in C57BL/6 mouse assessed as reduction in tumor volume at 300 to 400 ug, ip administered 5 days per week and measured every 2 to 3 days by caliper method; format: functional, organism-based; conditions: dose 300-400 µg
[3] = Kinetic solubility of compound in PBS at pH 7.4 by Rapidfire-MS/MS method; format: physicochemical; conditions: buffer
[4] = Unbound fraction in human plasma by dialysis method; format: ADME, cell-free
[5] = Unbound fraction in mouse plasma by dialysis method; format: ADME, cell-free
[6] = Hepatic intrinsic clearance in human liver microsomes assessed per mg protein at 0.5 uM in presence of NADPH regenerating system by UHPLC-MS/MS method; format: ADME, Microsome; conditions: read-out: CLH
[7] = Hepatic intrinsic clearance in mouse liver microsomes assessed per mg protein at 0.5 uM in presence of NADPH regenerating system by UHPLC-MS/MS method; format: ADME, Microsome; conditions: read-out: CLH
[8] = Drug uptake in C57BL/6 mouse at 400 ug, ip measured after 1 hr by UHPLC-MS/MS analysis; format: ADME, organism-based; conditions: in vivo, dose 400 µg, read-out: Drug uptake
[9] = Drug uptake in C57BL/6 mouse at 400 ug, ip measured after 3 hrs by UHPLC-MS/MS analysis; format: ADME, organism-based; conditions: in vivo, dose 400 µg, read-out: Drug uptake
[10] = Drug uptake in C57BL/6 mouse at 400 ug, ip measured after 6 hrs by UHPLC-MS/MS analysis; format: ADME, organism-based; conditions: in vivo, dose 400 µg, read-out: Drug uptake
[11] = Drug uptake in C57BL/6 mouse at 400 ug, ip measured after 24 hrs by UHPLC-MS/MS analysis; format: ADME, organism-based; conditions: in vivo, dose 400 µg, read-out: Drug uptake
[12] = Cmax in C57BL/6 mouse at 400 ug, ip by UHPLC-MS/MS analysis; format: ADME, organism-based; conditions: in vivo, dose 400 µg
[13] = Tmax in C57BL/6 mouse at 400 ug, ip by UHPLC-MS/MS analysis; format: ADME, organism-based; conditions: in vivo, dose 400 µg
[14] = Clast in C57BL/6 mouse at 400 ug, ip by UHPLC-MS/MS analysis; format: ADME, organism-based; conditions: in vivo, dose 400 µg
[15] = Tlast in C57BL/6 mouse at 400 ug, ip by UHPLC-MS/MS analysis; format: ADME, organism-based; conditions: in vivo, dose 400 µg
[16] = AUClast in C57BL/6 mouse at 400 ug, ip by UHPLC-MS/MS analysis; format: ADME, organism-based; conditions: in vivo, dose 400 µg
U-937 [17] = test: Downregulation of SREBP-1 expression in human U-937 cells incubated for 72 hrs by qRT-PCR analysis; format: functional, cell-based
U-937 [18] = test: Downregulation of SCD1 expression in human U-937 cells incubated for 72 hrs by qRT-PCR analysis; format: functional, cell-based
U-937 [19] = test: Downregulation of FASN expression in human U-937 cells incubated for 72 hrs by qRT-PCR analysis; format: functional, cell-based
U-937 [20] = test: Upregulation of ABCA1 expression in human U-937 cells incubated for 72 hrs by qRT-PCR analysis; format: functional, cell-based
[21] = Observed AUC infinity in C57BL/6 mouse at 400 ug, ip by UHPLC-MS/MS analysis; format: ADME, organism-based; conditions: in vivo, dose 400 µg
Mus musculus = test: Observed extrapolated AUC in C57BL/6 mouse at 400 ug, ip by UHPLC-MS/MS analysis; format: ADME, organism-based; conditions: in vivo, at 400 µg
[22] = target: T1, Oxysterols receptor LXR-alpha (Homo sapiens, UniProt Q13133); test: Antagonist activity at LXRalpha (unknown origin) by TR-FRET assay
T1 sequence (Q13133 whole entry): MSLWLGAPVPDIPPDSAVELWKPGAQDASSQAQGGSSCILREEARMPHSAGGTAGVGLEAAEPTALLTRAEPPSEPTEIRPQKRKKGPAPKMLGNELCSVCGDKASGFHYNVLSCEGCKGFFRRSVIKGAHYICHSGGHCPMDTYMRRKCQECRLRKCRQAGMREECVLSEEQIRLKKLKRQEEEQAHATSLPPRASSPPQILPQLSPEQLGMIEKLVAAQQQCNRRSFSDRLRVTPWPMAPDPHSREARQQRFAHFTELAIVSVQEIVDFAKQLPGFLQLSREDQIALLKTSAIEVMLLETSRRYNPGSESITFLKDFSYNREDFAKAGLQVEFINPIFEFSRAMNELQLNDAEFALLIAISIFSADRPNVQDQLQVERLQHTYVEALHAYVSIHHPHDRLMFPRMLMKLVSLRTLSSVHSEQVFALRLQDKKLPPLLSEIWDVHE

[23] = target: T1, Oxysterols receptor LXR-alpha; test: Antagonist activity at LXRalpha (unknown origin)

Compound | Activity (B16-F1) | Activity [2] | Kinetic_solubility [3] | Fu [4] [%] | Fu [5] [%] | microsomal CLint at 0.5 µM [6] [µL/min/mg] | microsomal CLint at 0.5 µM [7] [µL/min/mg] | concentration at 1 h [8] [ng/mL] | concentration at 3 h [9] [ng/mL] | concentration at 6 h [10] [ng/mL] | Cmax [12] [ng/mL] | Tmax [13] [h] | Clast [14] [ng/mL] | Tlast [15] [h] | AUC(0-t) [16] [ng·h/mL] | IC50 [22] [µM] | IC50 [23] [µM] | further results
C[C@@H]([C@H]1CC[C@H]2[C@@H]3CC=C4C[C@@H](O)CC[C@]4(C)[C@H]3CC[C@]12C)[C@@H](O)Cc1ccccc1 | Active | Active | NotTraceable | < 1 | < 1 | < 9.9 | 45.8 | 68.9 | 109 | 110 | 174 | 6 | 167 | 24 | 3070 |  |  | Activity [1]: Active; concentration at 24 h [11]: 167 ng/mL; Activity (U-937 [17]): Active; Activity (U-937 [18]): Active; Activity (U-937 [19]): Active; Activity (U-937 [20]): Active
CC(C)CC[C@H](O)[C@@H](C)[C@H]1CC[C@H]2[C@@H]3CC=C4C[C@@H](OS(=O)(=O)[O-])CC[C@]4(C)[C@H]3CC[C@]12C.[Na+] | Active | Active | NotTraceable | < 1 | < 1 | 26.4 | 17.2 | 3170 | 363 | 65.2 | 3170 | 1 | 65.2 | 6 | 4690 |  |  | AUC(0-inf) [21]: 4800 ng·h/mL; %AUCextra (Mus musculus): 2.5%
CC(C)[C@H](CC[C@@H](C)[C@H]1CC[C@H]2[C@@H]3CC=C4C[C@@H](O)CC[C@]4(C)[C@H]3CC[C@]12C)OS(=O)(=O)O |  |  |  |  |  |  |  |  |  |  |  |  |  |  |  | 0.31 |  | 
CC(C)CCC[C@@H](C)[C@H]1CC[C@H]2[C@@H]3C(=O)C=C4C[C@@H](OS(=O)(=O)O)CC[C@]4(C)[C@H]3CC[C@]12C |  |  |  |  |  |  |  |  |  |  |  |  |  |  |  |  | 5 | 
CC(C)[C@@H](O)CC[C@@H](C)[C@H]1CC[C@H]2[C@@H]3CC=C4C[C@@H](OS(=O)(=O)O)CC[C@]4(C)[C@H]3CC[C@]12C |  |  |  |  |  |  |  |  |  |  |  |  |  |  |  | 0.15 |  | 
CC(C)CCC[C@@H](C)[C@H]1CC[C@H]2[C@@H]3C[C@@H]4O[C@@]45C[C@@H](OS(=O)(=O)O)CC[C@]5(C)[C@H]3CC[C@]12C |  |  |  |  |  |  |  |  |  |  |  |  |  |  |  |  | 2 | 
